Columns and labels:
[1] = Fluorescence quantum yield of BDSA in solution and as nanoaggregates; format: physicochemical
Text: A representative transmission electron microscopic (TEM) image of the obtained nanoaggregates with a diameter of 44±7 nm is shown in FIG. 1a. […] The fluorescence quantum yield (Φf) of nanoaggregated state varies (0.1˜0.3), depending on the preparation conditions, including solvent, solvent/water ratio, and overall dye concentration, etc. […] No notable sign of H- or J-aggregation was observed, implying that molecular stacking is neither too close nor well ordered within the nanoaggregated structure. The fluorescence quenching in solution can be understood as dominant non-radiative decay, enhanced by free intramolecular torsional motion in solution, as in the case of flexible molecules showing viscosity-dependent fluorescence. Moreover, the weak, broad, and red-shifted emission of the solution, compared to that of the aggregate, implies the existence of large-amplitude relaxation in the excited state, such as twisted intramolecular charge transfer (TICT) which often acts as an intramolecular fluorescence quencher due to the nπ* characteristics. This is supported by our observation of intense and blue-shifted monomer fluorescence from a dilute solid solution of BDSA in PMMA film, where isolated molecules are frozen in the distorted form by rigid matrix, to prevent fluorescence quenching motion. The structural effect on aggregate formation and fluorescence was studied with a specific comparison between BDSA and the 1,4-phenylene analogue, BDSB, by varying the solvent/water ratio.

[2] = One- and two-photon excited fluorescence of HPPH/BDSA nanoparticles (intraparticle FRET); format: physicochemical; conditions: free HPPH, self-aggregation
Method: To produce fluorescent domains of BDSA aggregates in the particle matrix, the following amounts were loaded to induce phase separation: 10, 20, and 30 wt % with respect to the total VTES amount. Fluorescence lifetime measurements were performed using Time correlated Single Photon Counting (TCSPC) technique. For this measurements, Ti:Sapphire laser providing 800 nm femtosecond pulses was used as excitation source and a SPC-830 TCSPC module (Becker & Hickl) with an H7422 (Hamamatsu) detector with a response time in the range of 250 ps was used for the measurements. […] For an estimation of the instrument response function (IRF), a dye with a known fluorescence lifetime (from Streak camera measurements), less than 50 ps was used. […] For quantitative comparison, the concentrations of the nanoparticle water dispersions were kept the same for all the sample sets. The dispersions of all examined HPPH-loaded nanoparticles had the absorbance of 0.07 at 665 nm.
When excited at 425 nm, the obtained fluorescence spectrum of the coencapsulating nanoparticles is a composite of the emission contributions from the donor BDSA aggregates and the acceptor HPPH. Compared with the fluorescence intensities of the nanoparticles containing the corresponding amount of each dye, BDSA emission is quenched by 70% and HPPH emission is amplified ca. 5 times, indicating the occurrence of FRET. […]

Row | Structure (SMILES) | Fluorescence quantum yield (Φf) ([1]; NMP solution) | Fluorescence intensification by aggregation ([1]; aggregate versus NMP solution) | Fluorescence change on aggregate formation ([1]; varying solvent/water ratio, THF/H2O, 5 μM (FIG. 2)) | Fluorescence in water dispersions [2]
1 | CN(CCOC(=O)c1ccccc1)c1ccc(C=Cc2ccc(C=Cc3c4ccccc4c(C=Cc4ccc(C=Cc5ccc(N(C)CCOC(=O)c6ccccc6)cc5)cc4)c4ccccc34)cc2)cc1 [BDSA, 9,10-Bis(4′-{4″-[N-methyl-N-(2-benzoyloxyethyl)amino]styryl}styryl)anthracene] | ~0.009 | more than 30 times | Enhanced fluorescence is seen | –
2 | CCCCCCOC(C)C1=C(C)c2cc3nc(c4c5[nH]c(cc6[nH]c(cc1n2)c(C)c6CC)c(C)c5C(=O)C4)C(CCC(=O)O)C3C (stereo not shown) [HPPH, 2-devinyl-2-(1-hexyloxyethyl)pyropheophorbide] | – | – | – | completely quenched

From patent US20080233051A1, “Nanoparticles for two-photon activated photodynamic therapy and imaging” (priority 2006, published 2008)
